Experimental findings from ChEMBL document CHEMBL5584327, “Phenylstyrylpyrimidine derivatives as potential multipotent therapeutics for Alzheimer's disease” (RSC Med Chem, 2024) are described below.

Usually inhibition stands for the drop in the measured response relative to a control, in per cent. As a reminder, the IC50 is the point on the concentration scale where inhibition reaches its midpoint. Low values mean greater potency, high ones weaker potency.

Calls of active or inactive are those of the source. The calls are words filed in the database; no cut-off is given here.

In series [1] the target is T1, Amine oxidase [flavin-containing] B (Homo sapiens, UniProt P27338).
T1 sequence (P27338 whole entry): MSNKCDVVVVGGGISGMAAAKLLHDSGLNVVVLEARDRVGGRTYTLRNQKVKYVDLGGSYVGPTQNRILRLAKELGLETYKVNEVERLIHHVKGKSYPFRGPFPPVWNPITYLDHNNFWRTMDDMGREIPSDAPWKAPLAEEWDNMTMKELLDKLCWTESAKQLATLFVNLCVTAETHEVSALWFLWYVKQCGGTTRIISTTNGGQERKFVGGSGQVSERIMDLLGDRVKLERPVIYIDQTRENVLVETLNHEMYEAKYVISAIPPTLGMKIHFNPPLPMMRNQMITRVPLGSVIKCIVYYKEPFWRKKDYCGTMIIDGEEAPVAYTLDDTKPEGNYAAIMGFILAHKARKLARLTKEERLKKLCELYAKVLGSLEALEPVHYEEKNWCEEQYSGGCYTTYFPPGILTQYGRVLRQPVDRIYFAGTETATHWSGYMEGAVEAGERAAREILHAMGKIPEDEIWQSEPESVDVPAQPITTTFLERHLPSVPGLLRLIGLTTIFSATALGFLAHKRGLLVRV
Briefly: Inhibition of human MAO-B at 10 uM using p-tyramine as substrate incubated for 30 mins by Amplex Red reagent based fluorescence analysis relative to control. Particulars: 0.5 h.

Series [2] concerns the target T2, Amine oxidase [flavin-containing] A (Homo sapiens, UniProt P21397).
T2 sequence (P21397 whole entry): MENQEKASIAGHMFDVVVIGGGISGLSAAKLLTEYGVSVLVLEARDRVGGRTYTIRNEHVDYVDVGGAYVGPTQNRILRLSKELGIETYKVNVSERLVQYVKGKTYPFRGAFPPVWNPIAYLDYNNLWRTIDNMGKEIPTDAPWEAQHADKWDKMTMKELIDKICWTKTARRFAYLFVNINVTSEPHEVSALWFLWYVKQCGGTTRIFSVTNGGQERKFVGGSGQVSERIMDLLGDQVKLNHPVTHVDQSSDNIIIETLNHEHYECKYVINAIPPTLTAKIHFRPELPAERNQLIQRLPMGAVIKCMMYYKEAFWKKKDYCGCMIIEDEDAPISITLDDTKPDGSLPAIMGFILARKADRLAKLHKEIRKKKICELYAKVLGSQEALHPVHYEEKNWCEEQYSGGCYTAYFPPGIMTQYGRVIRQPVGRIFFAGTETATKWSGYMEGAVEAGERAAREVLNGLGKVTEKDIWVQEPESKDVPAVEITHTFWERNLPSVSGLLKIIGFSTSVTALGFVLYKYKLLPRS
Briefly: Inhibition of human MAO-A at 10 uM using p-tyramine as substrate incubated for 30 mins by Amplex Red reagent based fluorescence analysis relative to control. To be noted: 0.5 h.

For series [3], the target named is Acetylcholinesterase (Electrophorus electricus) (UniProt O42275). As to the kind of experiment: Inhibition of electric eel AChE at 20 uM using acetylthiocholine iodide as substrate incubated for 30 min by DTNB reagent based Ellman's method relative to control. (In general: Ellman's reagent forms a yellow product with free thiols.)
Chain of Acetylcholinesterase (Electrophorus electricus) (O42275 24-633 limits assumed): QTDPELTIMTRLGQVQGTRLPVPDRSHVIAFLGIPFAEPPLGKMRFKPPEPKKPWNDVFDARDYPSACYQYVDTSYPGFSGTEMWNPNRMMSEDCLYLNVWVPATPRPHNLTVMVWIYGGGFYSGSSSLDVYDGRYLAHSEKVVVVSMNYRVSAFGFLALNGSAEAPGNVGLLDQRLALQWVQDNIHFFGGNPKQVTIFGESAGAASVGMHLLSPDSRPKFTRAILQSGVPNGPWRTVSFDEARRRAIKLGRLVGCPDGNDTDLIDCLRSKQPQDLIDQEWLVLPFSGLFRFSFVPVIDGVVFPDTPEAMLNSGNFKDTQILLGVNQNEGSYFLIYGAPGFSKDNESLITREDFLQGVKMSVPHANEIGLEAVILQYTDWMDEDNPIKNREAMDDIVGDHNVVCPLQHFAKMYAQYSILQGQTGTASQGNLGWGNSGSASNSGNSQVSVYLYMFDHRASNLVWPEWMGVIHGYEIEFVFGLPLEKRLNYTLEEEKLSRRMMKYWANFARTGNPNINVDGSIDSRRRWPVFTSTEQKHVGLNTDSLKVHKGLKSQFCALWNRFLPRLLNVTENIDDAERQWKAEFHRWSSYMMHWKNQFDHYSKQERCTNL
For series [4], the target named is Cholinesterase (Equus caballus) (UniProt P81908). Briefly: Inhibition of equine BuChE at 25 uM using butyryl-thiocholine iodide as substrate incubated for 30 min by DTNB reagent based Ellman's method.
Chain of Cholinesterase (Equus caballus) (P81908 whole entry): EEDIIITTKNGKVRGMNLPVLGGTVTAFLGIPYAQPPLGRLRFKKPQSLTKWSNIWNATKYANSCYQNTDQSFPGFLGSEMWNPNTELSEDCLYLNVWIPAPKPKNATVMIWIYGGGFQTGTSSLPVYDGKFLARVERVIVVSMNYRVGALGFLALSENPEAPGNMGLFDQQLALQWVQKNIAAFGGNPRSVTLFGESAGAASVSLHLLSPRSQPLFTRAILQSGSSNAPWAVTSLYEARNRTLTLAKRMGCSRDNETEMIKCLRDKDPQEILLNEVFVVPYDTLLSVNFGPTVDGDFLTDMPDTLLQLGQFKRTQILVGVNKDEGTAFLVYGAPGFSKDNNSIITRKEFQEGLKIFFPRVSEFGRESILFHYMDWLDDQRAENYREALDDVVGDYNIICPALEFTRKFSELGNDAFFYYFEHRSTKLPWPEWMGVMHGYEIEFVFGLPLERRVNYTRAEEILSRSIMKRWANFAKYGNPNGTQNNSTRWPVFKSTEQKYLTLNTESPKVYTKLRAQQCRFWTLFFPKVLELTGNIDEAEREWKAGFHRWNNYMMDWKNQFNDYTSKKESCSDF
The target is the same in series [5]. Briefly: Inhibition of equine BuChE at 20 uM using butyryl-thiocholine iodide as substrate incubated for 30 min by DTNB reagent based Ellman's method relative to control.
For series [6], the target named is T1, Amine oxidase [flavin-containing] B. As to the kind of experiment: Inhibition of human MAO-B using p-tyramine as substrate incubated for 30 mins by Amplex Red reagent based fluorescence analysis.
The target in series [7] is Acetylcholinesterase (Electrophorus electricus, UniProt O42275). As to the kind of experiment: Inhibition of electric eel AChE using acetylthiocholine iodide as substrate incubated for 30 min by DTNB reagent based Ellman's method.
Chain of Acetylcholinesterase (Electrophorus electricus, UniProt O42275) (O42275 whole entry): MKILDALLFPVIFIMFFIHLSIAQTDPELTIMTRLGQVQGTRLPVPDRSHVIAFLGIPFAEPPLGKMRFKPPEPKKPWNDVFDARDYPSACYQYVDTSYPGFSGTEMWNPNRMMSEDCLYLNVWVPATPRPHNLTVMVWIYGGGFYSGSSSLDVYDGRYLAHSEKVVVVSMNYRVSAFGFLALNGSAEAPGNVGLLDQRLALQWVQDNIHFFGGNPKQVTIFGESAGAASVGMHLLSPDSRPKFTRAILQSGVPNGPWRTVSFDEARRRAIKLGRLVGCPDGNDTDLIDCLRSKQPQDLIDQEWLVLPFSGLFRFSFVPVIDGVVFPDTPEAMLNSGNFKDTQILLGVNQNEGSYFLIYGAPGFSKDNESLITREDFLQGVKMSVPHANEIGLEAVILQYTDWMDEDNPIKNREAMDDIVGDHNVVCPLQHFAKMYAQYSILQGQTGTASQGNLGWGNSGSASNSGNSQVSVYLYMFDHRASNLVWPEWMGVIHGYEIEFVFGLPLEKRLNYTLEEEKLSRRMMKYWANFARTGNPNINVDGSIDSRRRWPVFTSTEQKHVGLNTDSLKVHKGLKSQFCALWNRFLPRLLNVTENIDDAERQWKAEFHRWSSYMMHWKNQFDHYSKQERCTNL
Series [8] has as its target Acetylcholinesterase (Homo sapiens, UniProt P22303). Briefly: Inhibition of AChE (unknown origin).
The target of series [9] is Amyloid-beta precursor protein (Homo sapiens) (UniProt P05067). Briefly: Inhibition of amyloid beta (1 to 42) (unknown origin) aggregation at 10 uM incubated for 24 hrs by ThT assay relative to control.
Chain of Amyloid-beta precursor protein (Homo sapiens) (P05067 whole entry): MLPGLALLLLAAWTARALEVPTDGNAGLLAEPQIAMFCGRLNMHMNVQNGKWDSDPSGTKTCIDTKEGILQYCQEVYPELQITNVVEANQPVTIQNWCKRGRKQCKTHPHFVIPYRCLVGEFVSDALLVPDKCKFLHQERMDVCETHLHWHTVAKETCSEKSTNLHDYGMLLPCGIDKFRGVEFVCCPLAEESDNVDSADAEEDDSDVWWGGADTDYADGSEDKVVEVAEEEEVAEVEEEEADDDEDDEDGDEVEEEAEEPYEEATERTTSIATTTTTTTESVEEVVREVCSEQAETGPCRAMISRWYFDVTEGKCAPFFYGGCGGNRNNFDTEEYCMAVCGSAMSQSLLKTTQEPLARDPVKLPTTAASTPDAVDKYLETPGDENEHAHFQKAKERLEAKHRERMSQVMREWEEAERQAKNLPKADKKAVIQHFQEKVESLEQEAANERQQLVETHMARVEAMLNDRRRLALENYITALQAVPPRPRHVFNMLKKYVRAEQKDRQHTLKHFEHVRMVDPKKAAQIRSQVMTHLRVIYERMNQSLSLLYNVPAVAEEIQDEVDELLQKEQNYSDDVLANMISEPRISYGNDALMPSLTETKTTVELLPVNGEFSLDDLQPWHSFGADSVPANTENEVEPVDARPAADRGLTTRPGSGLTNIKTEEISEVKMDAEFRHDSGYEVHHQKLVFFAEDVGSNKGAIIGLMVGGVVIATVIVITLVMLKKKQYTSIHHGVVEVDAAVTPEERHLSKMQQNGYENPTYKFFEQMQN
The target in series [10] is T2, Amine oxidase [flavin-containing] A. As to the kind of experiment: Inhibition of human MAO-A at 25 uM using p-tyramine as substrate incubated for 30 mins by Amplex Red reagent based fluorescence analysis. Particulars: 0.5 h.

Chain of Acetylcholinesterase (Homo sapiens, UniProt P22303) (P22303 whole entry): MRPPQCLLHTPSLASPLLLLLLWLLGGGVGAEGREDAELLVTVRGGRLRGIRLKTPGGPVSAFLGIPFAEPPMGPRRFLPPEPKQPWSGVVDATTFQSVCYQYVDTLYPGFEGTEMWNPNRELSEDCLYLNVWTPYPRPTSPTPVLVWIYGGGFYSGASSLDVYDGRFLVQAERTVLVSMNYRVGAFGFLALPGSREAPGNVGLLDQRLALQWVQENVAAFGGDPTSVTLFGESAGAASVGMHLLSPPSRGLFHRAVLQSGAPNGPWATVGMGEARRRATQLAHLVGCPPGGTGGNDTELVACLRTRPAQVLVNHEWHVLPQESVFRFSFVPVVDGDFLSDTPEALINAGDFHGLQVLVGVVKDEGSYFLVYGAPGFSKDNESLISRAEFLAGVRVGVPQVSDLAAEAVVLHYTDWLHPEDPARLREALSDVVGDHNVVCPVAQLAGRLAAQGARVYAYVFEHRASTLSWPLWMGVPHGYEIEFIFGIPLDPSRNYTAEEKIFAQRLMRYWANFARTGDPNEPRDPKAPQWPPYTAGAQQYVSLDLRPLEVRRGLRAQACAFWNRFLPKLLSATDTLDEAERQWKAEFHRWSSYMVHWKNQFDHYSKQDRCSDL

`C#CCOc1ccc(-c2cc(/C=C/c3ccccc3)nc(N)n2)cc1C`: the inhibition at 10 µM in [1] stood at 11.9%; in series [2], 13.1%. For the same molecule, the inhibition in series [3] is 62.6%. Besides, the inhibition result in [4] was “inactive”.

Consider `C#CCOc1ccc(-c2cc(/C(C)=C/c3ccccc3)nc(C)n2)cc1`, for which the inhibition at 10 µM is 15.7% in series [1] and 10.9% in series [2]. In series [3], the inhibition came out at 60.5%. In addition, the inhibition entry in series [4] was “inactive”.

`C#CCOc1ccc(-c2cc(/C(C)=C/c3ccccc3)nc(N)n2)cc1`: the inhibition at 10 µM in series [1] was found to be 1.79%; in series [2], 8.66%. Moreover, the inhibition is 71.3% in series [3] and 3.04% in [5].

Turning to `C#CCOc1cccc(-c2cc(/C(C)=C\c3ccccc3)nc(N)n2)c1`, the inhibition at 10 µM in series [1] is 69.7%; in series [2], 12%. The inhibition in [3] stood at 66.3%; in [5], 7.03%. Besides, the results for the 50% inhibitory concentration (IC50) (in series [6]; against Acetylcholinesterase [7]) were 8.15 µM and 8.48 µM, respectively.

As for `C#CCOc1cccc(-c2cc(/C=C/c3ccccc3)nc(-c3ccccc3)n2)c1`, the inhibition at 10 µM stood at 4.89% in [1] and 0.4% in series [2]. For the same molecule, the figures for the inhibition in series [3] and in series [5] were 69.6% and 1.5%, respectively.

Regarding `C#CCOc1ccc(-c2cc(/C=C/c3ccccc3)nc(C)n2)cc1C`, the inhibition at 10 µM was found to be 0.27% in series [1] and 0.96% in [2]. The inhibition in series [3] was 67%. Further, in [4], the inhibition entry was “inactive”.

Take `C#CCOc1ccc(-c2cc(/C=C/c3ccccc3)nc(N)n2)cc1`: the figures for the inhibition at 10 µM in series [1] and in [2] were 9.28% and 8.61%, respectively. Moreover, the inhibition in [3] worked out at 68.5%; in series [5], 2.12%.

As for `C#CCOc1ccc(-c2cc(/C=C/c3ccccc3)nc(C)n2)cc1`, the inhibition at 10 µM in series [1] is 20.9%; in series [2], 10%. For the same molecule, the inhibition in [3] worked out at 62.8%; in series [5] it was 8.16%.

Consider `N#Cc1cccnc1N1CCN(c2cc(Oc3cccc4cccnc34)ncn2)CC1`, for which the half-maximal inhibitory concentration (IC50) against Acetylcholinesterase [8] is 0.036 µM.

Consider `C#CCOc1ccc(-c2cc(/C=C/c3ccccc3)nc(-c3ccccc3)n2)cc1`, for which the figures for the inhibition at 10 µM in series [1] and in series [2] were 7.18% and 20.9%, respectively. Moreover, the inhibition in series [3] worked out at 70.2%; in [5], 3.6%.

Take `C#CCOc1cccc(-c2cc(/C=C/c3ccccc3)nc(C)n2)c1`: the figures for the inhibition at 10 µM in series [1] and in series [2] were 2.96% and 15.5%, respectively. Further, the results for the inhibition in series [3] and in series [5] were 61.6% and 3.17%, respectively.

On to `C#CCOc1cccc(-c2cc(/C(C)=C/c3ccccc3)ncn2)c1`, for which the inhibition at 10 µM is 23.4% in [1] and 0.87% in series [2]. Besides, the inhibition in series [3] stood at 65.7%. Also, in series [4], the inhibition entry was “inactive”.

The molecule `Oc1ccc(/C=C/c2cc(O)cc(O)c2)cc1` showed an inhibition in series [9] of 54.6%.

The molecule `C#CCOc1ccc(-c2cc(/C=C\c3ccccc3)ncn2)cc1` had an inhibition at 10 µM in series [1] of 67.5%. The “inhibition (INH)” value in series [10] is recorded as “Not Active”. Further, the inhibition in series [3] is 63.4%. Besides, the inhibition result in series [4] is “inactive”. For the same molecule, the half-maximal inhibitory concentration (IC50) in series [6] was found to be 10.9 µM; against Acetylcholinesterase [7], 7.49 µM.

For the molecule `C#CCOc1ccccc1-c1cc(/C=C/c2ccccc2)nc(-c2ccccc2)n1`, the inhibition at 10 µM amounted to 3.49% in series [1] and 9.57% in series [2]. In addition, the inhibition is 64.2% in [3] and 3.6% in [5].

On to `C#CCOc1ccc(-c2cc(-c3ccc(OCC#C)cc3)nc(N)n2)cc1`, for which, at Acetylcholinesterase [8], the IC50 is 1.35 µM.
